# Read-outs that look alike come from different tables or passages of the source.
# Legend:
# [1] = system: Mycobacterium tuberculosis H37Rv; experiment: MIC90 broth macrodilution; type: cell-based
# [2] = system: Mycobacterium tuberculosis 115R; experiment: MIC90 broth macrodilution; type: cell-based
# [3] = system: Mycobacterium tuberculosis 124R; experiment: MIC90 broth macrodilution; type: cell-based
# Mtb = type: cell-based, Mycobacterium tuberculosis
Structure (SMILES),activity against growth (in words) [1],MIC90 [2],MIC90 [3],frequency of spontaneous mutations that confer resistance (Mtb),MIC90 ([2]; read-out: MIC90),MIC90 ([3]; read-out: MIC90)
CC(=O)NC[C@H]1CN(c2ccc3c(c2)Oc2ccccc2O3)C(=O)O1 [Compound T145],potent activity,0.5 to 1 µg/mL,0.5 to 1 µg/mL,4.0×10^−8,,
"COc1cccc2c1Oc1ccc(N3C[C@H](CNC(C)=O)OC3=O)cc1O2 [Compound T197, (S)—N-((3-(6-methoxydibenzo[b,e][1,4]dioxin-2-yl)-2-oxooxazolidin-5-yl)methyl)acetamide]",,,,,8 to 16 µg/mL,4 to 8 µg/mL
"CC(=O)NC[C@H]1CN(c2ccc(N3CCOCC3)c(F)c2)C(=O)O1 [Linezolid, reference compound]",,,,,0.25 to 0.5 µg/mL,0.25 to 0.5 µg/mL
"C[C@@H](O)[C@H]1C(=O)N2C(C(=O)O)=C(S[C@@H]3CN[C@H](C(=O)N(C)C)C3)[C@H](C)[C@H]12 [Meropenem, reference compound]",,,,,8 to 16 µg/mL,8 to 16 µg/mL

# From patent publication US10870646B2, “Oxazolidinones and pharmaceutical compositions thereof for treating bacterial infections, including infection of Mycobacterium tuberculosis” (University of St. Thomas, priority 2017, dated 2020)
